Experimental data from patent US20250268873A1, “COMBINATION OF DUAL ATM AND DNA-PK INHIBITORS AND IMMUNOTHERAPEUTIC AGENTS FOR USE IN CANCER THERAPY” (XRAD THERAPEUTICS, INC., priority 2021, published 2025).

Tested on: MDA-MB-231 tumors
Experiment: In vivo tumor growth delay study, MDA-MB-231 subcutaneous human xenograft mouse model
Protocol: Female NCr nu/nu mice (Crl:NU(NCr)-Foxn1nu, Strain 490) were obtained from Charles River at 5-6 weeks of age.
FADU or MDA-MB-231 cells were harvested during log phase growth for in vivo implantation. The resuspended cells were washed three times in phosphate buffered saline (PBS) before preparing the working dilution in PBS. FADU cells were diluted to 1×10^7 cells/mL and MDA-MB-231 cells were diluted to 5×10^7 cells/mL. Each mouse was injected subcutaneously in the right flank with 100 μL of the cellular suspension. Tumor growth was monitored until the tumors reached a target volume of at least 100 mm^3, at which point mice were randomly stratified into four treatment groups.
Following implantation of the tumor cell lines, mice were monitored once weekly for tumor development. Upon detection, tumors were measured in two dimensions using digital calipers. Tumors were treated after reaching at least 100 mm^3 and were measured two to three times weekly following enrollment in one of the treatment groups. The study endpoint was defined as tumor quintupling from the volume at time of treatment.
The vehicle used in this study was 0.5% (Hydroxypropyl)methyl cellulose (HPMC) and 0.2% Tween80 dissolved in deionized water. The pH of the vehicle was adjusted to 7.0-8.0 and the vehicle was stored at 4° C. On each day of in vivo treatment an appropriate mass of test compound was added to the vehicle at room temperature. The mixture was vortexed as necessary to generate a final concentration of 1.6 mg/mL.
In vivo tumor growth delay study was performed as follows. Following implantation of the tumor cell lines, mice were monitored once weekly for tumor development. Upon development of a tumor measuring at least 100 mm^3, tumor-bearing mice were stratified to one of 4 groups, utilizing 5 mice per group. Tumor volumes were between 100 and 500 mm^3. Vehicle or compound 569 (10 mg/kg) were administered by oral gavage once daily for three consecutive days (qd×3), alone or in combination with focal radiation. The delivered volume of vehicle or compound 569 was adjusted based on body weight of the individual animals. […]
Prism (GraphPad) was used for graphical presentations. […] In order to adjust for the differing tumor sizes at the start of treatment, the relative tumor volume was calculated by dividing the tumor volume at each time point by the volume at baseline. […] When an animal exited the study due to tumor quintupling, the final tumor volume recorded for the animal was included with the data used to calculate the median volume at subsequent time points. […] Differences in quintupling-free survival between the four treatment groups were evaluated with a log-rank test. […]

Structure (SMILES): CC(C)NCCOc1ncc(-c2cc3c4c(cnc3cc2F)N(C)C(=O)C42CCC2)cc1NS(C)(=O)=O [Compound 569, N-(5-(7′-Fluoro-3′-methyl-2′-oxo-2′,3′-dihydrospiro[cyclobutane-1,1′-pyrrolo[2,3-c]quinolin]-8′-yl)-2-(2-(isopropylamino)ethoxy)pyridin-3-yl)methanesulfonamide]
- median time to endpoint (tumor quintupling) (Group 2: compound 569 10 mg/kg po qd×3 alone): 17 days
- tumor growth curves and quintupling-free survival (Group 2: compound 569 10 mg/kg qd×3 alone vs vehicle (Group 1)): nearly identical to those for Group 1
- median time to endpoint (tumor quintupling) (Group 4: compound 569 10 mg/kg 45 min prior to 3 Gy focal radiation, qd×3): 43 days
- overall survival (quintupling-free) (Group 4: compound 569 + 3 Gy qd×3, P<0.01, logrank): significantly improved compared to Group 1, Group 2, and Group 3
